Results taken from patent publication US10538555B2, “Macrocyclic inhibitors of the PD-1/PD-L1 and CD80(B7-1)/PD-L1 protein/protein interactions” (BRISTOL-MYERS SQUIBB COMPANY, priority 2014, dated 2020).
Where a SMILES comes first, the peptide text is derived from it. Bridges are numbered along the chain shown (N, C = ends). [ ]: non-standard residue; d: D form. Trp(1-CH2COOH) = N[C@@H](Cc1cn(CC(=O)O)c2ccccc12)C(=O)O; Phe(3,4,5-F3) = N[C@@H](Cc1cc(F)c(F)c(F)c1)C(=O)O; Phe(3,4-F2) = N[C@@H](Cc1ccc(F)c(F)c1)C(=O)O; NMePhe(4-F) = CN[C@@H](Cc1ccc(F)cc1)C(=O)O; Phe(4-F) = N[C@@H](Cc1ccc(F)cc1)C(=O)O; d(cisHyp) = O=C(O)[C@H]1C[C@@H](O)CN1; Hyp = O=C(O)[C@@H]1C[C@@H](O)CN1; NMeF = CN[C@@H](Cc1ccccc1)C(=O)O; dPip(4-aza) = O=C(O)[C@H]1CNCCN1; dHyp = O=C(O)[C@H]1C[C@H](O)CN1; NMeNle = CCCC[C@H](NC)C(=O)O; NMeV = CN[C@H](C(=O)O)C(C)C; Pip = O=C(O)[C@@H]1CCCCN1; hSer = N[C@@H](CCO)C(=O)O; NMeA = CN[C@@H](C)C(=O)O; Orn = NCCC[C@H](N)C(=O)O; dThz = O=C(O)[C@H]1CSCN1; Dab = NCC[C@H](N)C(=O)O; Dap = NC[C@H](N)C(=O)O

These compounds were tested against T1, Human PD-L1/PD-1 (Homo sapiens, UniProt Q9NZQ7) (assay: HTRF Human PD-L1/PD-1 binding assay (PD-1-Ig/PD-L1-His)). Conditions: PD-L1-His 10 nM, PD-1-Ig 20 nM; class symbol; read-out: HTRF Human PD-L1/PD-1 Binding Assay IC50 Range.
T1 construct: TVMV protease cleavage site (C); made in house; host or cells: HEK293T cells
T1 sequence (Q9NZQ7 with tags, fused parts or gaps): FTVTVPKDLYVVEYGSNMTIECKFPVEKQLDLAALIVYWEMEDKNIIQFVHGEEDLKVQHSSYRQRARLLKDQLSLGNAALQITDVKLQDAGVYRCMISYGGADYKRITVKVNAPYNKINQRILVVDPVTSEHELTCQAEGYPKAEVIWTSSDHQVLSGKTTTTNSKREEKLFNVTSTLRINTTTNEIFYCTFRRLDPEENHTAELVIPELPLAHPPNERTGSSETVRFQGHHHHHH
Procedure, shortened: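 HTRF competition using HEK293T-expressed human PD-1(25-167)-Ig at 20 nM and PD-L1(18-239)-His at 10 nM, compound incubated first with PD-L1 for 15 min, then with PD-1 for 15 min. Signal read as 665/620 nm ratio 30 min after adding Eu anti-Ig and APC anti-His antibodies.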

SMILES | IC50 [nM]
CCCC[C@H]1C(=O)N2C[C@H](O)C[C@@H]2C(=O)N[C@@H](CC(=O)O)C(=O)N[C@@H](C(C)C)C(=O)N(C)[C@@H](Cc2ccccc2)C(=O)N[C@@H](CCC(=O)O)C(=O)N2C[C@H](O)C[C@@H]2C(=O)N[C@@H](Cc2c[nH]c3ccccc23)C(=O)N[C@@H](Cc2ccc(O)cc2)C(=O)N[C@@H](CCC(=O)O)C(=O)N[C@H](C(=O)NCC(N)=O)CSCC(=O)N[C@@H](Cc2cc(F)c(F)c(F)c2)C(=O)N(C)[C@@H](Cc2ccccc2)C(=O)N1C [Example 9335] ({CH2CO}-[Phe(3,4,5-F3)][NMeF][NMeNle][d(cisHyp)]DV[NMeF]E[d(cisHyp)]WYECG-NH2; thioether N-13) | 10 to 99.9
CCCC[C@H]1C(=O)N2C[C@H](O)C[C@@H]2C(=O)N[C@@H](CC(=O)O)C(=O)N[C@@H](C(C)C)C(=O)N(C)[C@@H](Cc2ccccc2)C(=O)N[C@@H](CCC(N)=O)C(=O)N2C[C@H](O)C[C@@H]2C(=O)N[C@@H](Cc2c[nH]c3ccccc23)C(=O)N[C@@H](Cc2ccc(O)cc2)C(=O)N[C@@H](CC(=O)O)C(=O)N[C@H](C(=O)NCC(N)=O)CSCC(=O)N[C@@H](Cc2cc(F)c(F)c(F)c2)C(=O)N(C)[C@@H](Cc2ccccc2)C(=O)N1C [Example 9358] ({CH2CO}-[Phe(3,4,5-F3)][NMeF][NMeNle][d(cisHyp)]DV[NMeF]Q[d(cisHyp)]WYDCG-NH2; thioether N-13) | 10 to 99.9
CCCC[C@H]1C(=O)N2C[C@H](O)C[C@@H]2C(=O)N[C@@H](CC(=O)O)C(=O)N[C@@H](C(C)C)C(=O)N(C)[C@@H](Cc2ccccc2)C(=O)N[C@@H](CCCN)C(=O)N2CCNC[C@@H]2C(=O)N[C@@H](Cc2c[nH]c3ccccc23)C(=O)N[C@@H](Cc2ccc(O)cc2)C(=O)N[C@@H](CCO)C(=O)N[C@H](C(=O)NCC(N)=O)CSCC(=O)N[C@@H](Cc2cc(F)c(F)c(F)c2)C(=O)N(C)[C@@H](Cc2ccccc2)C(=O)N1C [Example 10169] ({CH2CO}-[Phe(3,4,5-F3)][NMeF][NMeNle][d(cisHyp)]DV[NMeF][Orn][dPip(4-aza)]WY[hSer]CG-NH2; thioether N-13) | 1 to 9.9
CCCC[C@H]1C(=O)N2C[C@H](O)C[C@@H]2C(=O)N[C@@H](CC(=O)O)C(=O)N[C@@H](C(C)C)C(=O)N(C)[C@@H](Cc2ccccc2)C(=O)N[C@@H](CCN)C(=O)N2C[C@H](O)C[C@@H]2C(=O)N[C@@H](Cc2c[nH]c3ccccc23)C(=O)N[C@@H](Cc2ccc(O)cc2)C(=O)N[C@@H](CCCN)C(=O)N[C@H](C(=O)NCC(N)=O)CSCC(=O)N[C@@H](Cc2cc(F)c(F)c(F)c2)C(=O)N(C)[C@@H](Cc2ccc(F)cc2)C(=O)N1C [Example 10613] ({CH2CO}-[Phe(3,4,5-F3)][NMePhe(4-F)][NMeNle][d(cisHyp)]DV[NMeF][Dab][d(cisHyp)]WY[Orn]CG-NH2; thioether N-13) | 1 to 9.9
CCCC[C@H]1C(=O)N2CCC[C@@H]2C(=O)N[C@@H](CC(=O)O)C(=O)N[C@@H](C)C(=O)N(C)[C@@H](Cc2ccccc2)C(=O)N[C@@H](Cc2ccc(O)cc2)C(=O)N2CCC[C@@H]2C(=O)N[C@@H](Cc2c[nH]c3ccccc23)C(=O)N[C@@H](Cc2ccc(O)cc2)C(=O)N[C@@H](CC(C)C)C(=O)N[C@H](C(=O)NCC(N)=O)CSCC(=O)N[C@@H](Cc2ccccc2)C(=O)N(C)[C@@H](Cc2ccccc2)C(=O)N1C [Example 10076] ({CH2CO}-F[NMeF][NMeNle][dP]DA[NMeF]Y[dP]WYLCG-NH2; thioether N-13) | 10 to 99.9
CCCC[C@H]1C(=O)N2C[C@H](O)C[C@@H]2C(=O)N[C@@H](CC(=O)O)C(=O)N[C@@H](C(C)C)C(=O)N(C)[C@@H](Cc2ccccc2)C(=O)N[C@@H](CC(=O)O)C(=O)N2C[C@H](O)C[C@@H]2C(=O)N[C@@H](Cc2c[nH]c3ccccc23)C(=O)N[C@@H](Cc2ccc(O)cc2)C(=O)N[C@@H](CCO)C(=O)N[C@H](C(=O)NCC(N)=O)CSCC(=O)N[C@@H](Cc2cc(F)c(F)c(F)c2)C(=O)N(C)[C@@H](Cc2ccccc2)C(=O)N1C [Example 10173] ({CH2CO}-[Phe(3,4,5-F3)][NMeF][NMeNle][d(cisHyp)]DV[NMeF]D[d(cisHyp)]WY[hSer]CG-NH2; thioether N-13) | 10 to 99.9
CCCC[C@H]1C(=O)N2C[C@H](O)C[C@@H]2C(=O)N[C@@H](CC(=O)O)C(=O)N[C@@H](C(C)C)C(=O)N(C)[C@@H](Cc2ccccc2)C(=O)N[C@@H](CCC(=O)O)C(=O)N2CSC[C@@H]2C(=O)N[C@@H](Cc2c[nH]c3ccccc23)C(=O)N[C@@H](Cc2ccc(O)cc2)C(=O)N[C@@H](CC(C)C)C(=O)N[C@H](C(=O)NCC(N)=O)CSCC(=O)N[C@@H](Cc2cc(F)c(F)c(F)c2)C(=O)N(C)[C@@H](Cc2ccccc2)C(=O)N1C [Example 10148] ({CH2CO}-[Phe(3,4,5-F3)][NMeF][NMeNle][d(cisHyp)]DV[NMeF]E[dThz]WYLCG-NH2; thioether N-13) | 1 to 9.9
CCCC[C@H]1C(=O)N2C[C@@H](O)C[C@@H]2C(=O)N[C@@H](CC(=O)O)C(=O)N[C@@H](C(C)C)C(=O)N(C)[C@@H](Cc2ccccc2)C(=O)N[C@@H](CCC(=O)O)C(=O)N2C[C@@H](O)C[C@@H]2C(=O)N[C@@H](Cc2c[nH]c3ccccc23)C(=O)N[C@@H](Cc2ccc(O)cc2)C(=O)N[C@@H](CC(C)C)C(=O)N[C@H](C(=O)NCC(N)=O)CSCC(=O)N[C@@H](Cc2ccc(F)c(F)c2)C(=O)N(C)[C@@H](Cc2ccccc2)C(=O)N1C [Example 9277] ({CH2CO}-[Phe(3,4-F2)][NMeF][NMeNle][dHyp]DV[NMeF]E[dHyp]WYLCG-NH2; thioether N-13) | 1 to 9.9
CCCC[C@H]1C(=O)N[C@@H](CC(N)=O)C(=O)N2CCC[C@H]2CN[C@@H](CO)C(=O)N[C@@H](CCO)C(=O)N2CCC[C@H]2C(=O)N[C@@H](Cc2c[nH]c3ccccc23)C(=O)N[C@@H](CN)C(=O)N[C@@H](Cc2c[nH]c3ccccc23)C(=O)N(C)[C@@H](C)C(=O)N(C)[C@@H](C)C(=O)N[C@@H](CCCNC(=N)N)C(=O)NC(C(=O)NCC(N)=O)CSCC(=O)N[C@@H](Cc2ccc(O)cc2)C(=O)N1C (stereo partly drawn) [Example 10196] | 1000 to 10000
CCCC[C@H]1C(=O)N2CCC[C@@H]2C(=O)N[C@@H](CC(=O)O)C(=O)N[C@@H](C(C)C)C(=O)N(C)[C@@H](C(C)C)C(=O)N[C@@H](CCC(N)=O)C(=O)N2CCC[C@@H]2C(=O)N[C@@H](Cc2c[nH]c3ccccc23)C(=O)N[C@@H](Cc2ccc(O)cc2)C(=O)N[C@@H](CCCN)C(=O)N[C@H](C(=O)NCC(N)=O)CSCC(=O)N[C@@H](Cc2ccc(F)cc2)C(=O)N(C)[C@@H](Cc2ccccc2)C(=O)N1C [Example 9247] ({CH2CO}-[Phe(4-F)][NMeF][NMeNle][dP]DV[NMeV]Q[dP]WY[Orn]CG-NH2; thioether N-13) | 1000 to 10000

Second part, the compound after the results:

IC50 [nM] | SMILES
1 to 9.9 | CCCC[C@H]1C(=O)N(C)[C@@H](CCCC)C(=O)N[C@@H](CCC(=O)O)C(=O)N[C@H](C(=O)NCC(N)=O)CSCC(=O)N[C@@H](Cc2ccc(O)cc2)C(=O)N2CCCC[C@H]2C(=O)N[C@@H](CC(=O)O)C(=O)N2CCC[C@H]2C(=O)N[C@@H](Cc2cnc[nH]2)C(=O)N[C@@H](CCC(N)=O)C(=O)N2C[C@H](O)C[C@H]2C(=O)N[C@@H](Cc2c[nH]c3ccccc23)C(=O)N[C@@H](CO)C(=O)N[C@@H](Cc2c[nH]c3ccccc23)C(=O)N1C [Example 1260] ({CH2CO}-Y[Pip]DPHQ[Hyp]WSW[NMeNle][NMeNle]ECG-NH2; thioether N-14)
1 to 9.9 | CCCC[C@H]1C(=O)N(C)[C@@H](CCCC)C(=O)N[C@@H](CN)C(=O)N[C@H](C(=O)NCC(N)=O)CSCC(=O)N[C@@H](Cc2ccc(O)cc2)C(=O)N(C)[C@@H](C)C(=O)N[C@@H](CC(=O)O)C(=O)N2CCC[C@H]2C(=O)N[C@@H](CN)C(=O)N[C@@H](CCC(N)=O)C(=O)N2C[C@H](O)C[C@H]2C(=O)N[C@@H](Cc2c[nH]c3ccccc23)C(=O)N[C@@H](CCN)C(=O)N[C@@H](Cc2cn(CC(=O)O)c3ccccc23)C(=O)N1C [Example 5192] ({CH2CO}-Y[NMeA]DP[Dap]Q[Hyp]W[Dab][Trp(1-CH2COOH)][NMeNle][NMeNle][Dap]CG-NH2; thioether N-14)
1 to 9.9 | CCCC[C@H]1C(=O)N(C)[C@@H](CCCC)C(=O)N[C@@H](CCC(=O)O)C(=O)N[C@H](C(=O)NCC(N)=O)CSCC(=O)N[C@@H](Cc2ccc(O)cc2)C(=O)N(C)[C@@H](C)C(=O)N[C@@H](CC(=O)O)C(=O)N2CCC[C@H]2C(=O)N[C@@H](CO)C(=O)N[C@@H](CCC(=O)O)C(=O)N2C[C@H](O)C[C@H]2C(=O)N[C@@H](Cc2c[nH]c3ccccc23)C(=O)N[C@@H](CO)C(=O)N[C@@H](Cc2c[nH]c3ccccc23)C(=O)N1C [Example 5233] ({CH2CO}-Y[NMeA]DPSE[Hyp]WSW[NMeNle][NMeNle]ECG-NH2; thioether N-14)
1 to 9.9 | CCCC[C@H]1C(=O)N(C)[C@@H](CCCC)C(=O)N[C@@H](C)C(=O)N[C@H](C(=O)NCC(N)=O)CSCC(=O)N[C@@H](Cc2ccc(O)cc2)C(=O)N2CCCC[C@H]2C(=O)N[C@@H](CC(=O)O)C(=O)N2CCC[C@H]2C(=O)N[C@@H](CN)C(=O)N[C@@H](CC(C)C)C(=O)N2C[C@H](O)C[C@H]2C(=O)N[C@@H](Cc2c[nH]c3ccccc23)C(=O)N[C@@H](CO)C(=O)N[C@@H](Cc2c[nH]c3ccccc23)C(=O)N1C [Example 1523] ({CH2CO}-Y[Pip]DP[Dap]L[Hyp]WSW[NMeNle][NMeNle]ACG-NH2; thioether N-14)

Same assay, conditions: PD-L1-His 10 nM, PD-1-Ig 20 nM; read-out: HTRF Human PD-L1/PD-1 Binding Assay IC50

IC50 [nM] | SMILES
1000 | CCCC[C@H]1C(=O)N(C)[C@@H](CCCC)C(=O)N[C@@H](CN)C(=O)N[C@H](C(=O)NCC(N)=O)CSCC(=O)N[C@@H](Cc2ccc(O)cc2)C(=O)N(C)[C@@H](C)C(=O)N[C@@H](CC(N)=O)C(=O)N2CCC[C@H]2C(=O)N[C@@H](Cc2c[nH]cn2)C(=O)N[C@@H](CCC(N)=O)C(=O)N2C[C@H](O)C[C@H]2C(=O)N[C@@H](Cc2c[nH]c3ccccc23)C(=O)N[C@@H](CCN)C(=O)N[C@@H](Cc2cn(CC(=O)O)c3ccccc23)C(=O)N1C [Example 5222] ({CH2CO}-Y[NMeA]NPHQ[Hyp]W[Dab][Trp(1-CH2COOH)][NMeNle][NMeNle][Dap]CG-NH2; thioether N-14)
